Assay results as given in PubChem BioAssay (NCI).
Values joined by “and” are separate entries in the source; they are usually repeats but may differ in a detail not shown here. Equal entries are not always repeated.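 1) Cells in 96-well plates. 2) Compound, 48 h, 5 concentrations. 3) Linear interpolation between surrounding doses. 4) Unreached endpoint = highest concentration. The concentration for 50% growth inhibition is given as GI50. TGI: concentration producing complete growth inhibition.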

Tests used:
Experiment in all cases: NCI anticancer screen, dose series, 48 h
CCRF-CEM leukemia = test system: CCRF-CEM leukemia
HCC-2998 colon = test system: HCC-2998 colon
SR leukemia = test system: SR leukemia
SN12C renal = test system: SN12C renal
EKVX NSCLC = test system: EKVX NSCLC
HCT-116 colon = test system: HCT-116 colon
HS 578T breast = test system: HS 578T breast
MDA-MB-231 breast = test system: MDA-MB-231 breast
BT-549 breast = test system: BT-549 breast
NCI/ADR-RES ovarian = test system: NCI/ADR-RES ovarian

SMILES | TGI (CCRF-CEM leukemia) | TGI (HCC-2998 colon) | TGI (SR leukemia) | TGI (SN12C renal) | TGI (EKVX NSCLC) | TGI (HCT-116 colon) | TGI (HS 578T breast) | TGI (MDA-MB-231 breast) | TGI (BT-549 breast) | TGI (NCI/ADR-RES ovarian) | GI50 (HCC-2998 colon) | GI50 (SR leukemia) | GI50 (SN12C renal) | GI50 (HS 578T breast) | GI50 (MDA-MB-231 breast) | GI50 (BT-549 breast) | GI50 (HCT-116 colon) | GI50 (NCI/ADR-RES ovarian) | GI50 (EKVX NSCLC) | GI50 (CCRF-CEM leukemia)
CC1=CC(C)(c2c[nH]c3ccccc23)CC(C)(C)c2c1[nH]c1ccccc21 (centres undefined) | 31.7 µM | 30.4 µM | 32 µM | 28.5 µM | 39.8 µM | 26.7 µM | – | – | – | – | – | – | – | – | – | – | – | – | – | –
O=C(O)C1CC=CCC1C(=O)Nc1cccc(O)c1 (centres undefined) | – | > 100 µM | > 100 µM | > 100 µM | > 100 µM | > 100 µM | > 100 µM | > 100 µM | > 100 µM | > 100 µM | – | – | – | – | – | – | – | – | – | –
O=C(O)c1cc2ccccc2c2c3c(ccc12)OCO3 | – | 763 µM | 507 µM | > 1000 µM | – | > 1000 µM | 522 µM | > 1000 µM | 390 µM | 754 µM | 225 µM | 136 µM | 174 µM | 129 µM | 165 µM | 119 µM | 262 µM | 210 µM | – | –
CCCCC(C)/C=C/C(=O)C1=C(O)/C(=C/C(=O)O)OC1=O (centres undefined) | > 100 µM | – | > 100 µM | > 100 µM | > 100 µM | > 100 µM | – | – | – | – | – | – | – | – | – | – | – | – | – | –
O=C1/C(=C/c2ccc3c(c2)OCCO3)CCC/C1=C\c1ccc2c(c1)OCCO2 | > 100 µM | > 100 µM | 85.8 µM | 54.9 µM | > 100 µM | 7.85 µM | – | – | – | – | – | – | – | – | – | – | – | – | – | –
O=S(=O)(NCCNc1nccc(-c2c(-c3ccc(F)c(O)c3)nc3sccn23)n1)c1ccc(Cl)cc1 | – | > 50 µM | > 50 µM | > 50 µM | > 50 µM | > 50 µM | 13.3 µM | 24.1 µM | 14 µM | 17.5 µM | 2.93 µM | 1.87 µM | 1.54 µM | 1.26 µM | 2.98 µM | 1.65 µM | 1.54 µM | 1.79 µM | 2.19 µM | –
O=c1c2ccccc2[nH]c2c(O)ccc(O)c12 | > 88.6 µM | > 100 µM | 39.2 µM | 28.5 µM | > 62.1 µM | 37.9 µM | – | – | – | – | – | – | – | – | – | – | – | – | – | –
O=c1c2cc(Br)cc(Br)c2nc(CCCl)n1-c1ccc(O)c([N+](=O)[O-])c1 | 43.7 µM | 32.4 µM | 65.4 µM | 31.8 µM | 75.8 µM | 28.1 µM | – | – | – | – | – | – | – | – | – | – | – | – | – | –
C[C@H]1C/C=C/[C@H]2[C@@H]3O[C@]3(C)[C@@H](C)[C@H]3[C@H](Cc4ccccc4)NC(=O)[C@]32OC(=O)O/C=C/[C@@](C)(O)C1=O | 67.7 µM and 84.6 µM and 71.5 µM | – | – | – | – | 6.75 µM and 16.3 µM and 33.6 µM | – | 3.36 µM | – | > 81.9 µM and 125 µM and 160 µM | 0.155 µM and 0.342 µM | – | < 0.025 µM | – | – | – | 0.0578 µM and 0.0207 µM and 0.0301 µM | 34 µM and 33.3 µM | 0.065 µM and 0.121 µM | 0.0125 µM and 0.025 µM
NCCCOc1cc2ccccc2cc1C(=O)Nc1ccc(Cl)cc1OC(=O)c1cc2ccccc2cc1OCCCN | 1.39 µM | 2.82 µM | 1.48 µM | 2.23 µM | – | 0.313 µM | – | 1.99 µM | 3.1 µM | 2.79 µM | 1.43 µM | 0.257 µM | 0.742 µM | – | 0.596 µM | 1.66 µM | 0.175 µM | 1.17 µM | – | 0.413 µM
N#Cc1c(-c2ccccc2)cc(-c2ccc(N)cc2)[nH]c1=O | > 100 µM | > 100 µM | > 100 µM | > 100 µM | > 100 µM | > 100 µM | – | – | – | – | – | – | – | – | – | – | – | – | – | –
Nc1nonc1-c1nc2ccccc2n1Cc1ccc(F)cc1 | – | – | > 100 µM | – | – | > 100 µM | > 100 µM | > 100 µM | > 100 µM | > 100 µM | – | 4.89 µM | – | 3.18 µM | 6.84 µM | 9.8 µM | 4.81 µM | 4.16 µM | – | –
CC(=O)Oc1ccc2c(c1)[C@@]1(C)CCCC(C)(C)[C@@H]1CC2 | > 100 µM | – | > 100 µM | 33.1 µM | 62.1 µM | 32.8 µM | 56.5 µM | 34.2 µM | > 100 µM | 49.9 µM | – | > 100 µM | 18.6 µM | 24.7 µM | 17.8 µM | 36.5 µM | 18.4 µM | 26 µM | 26 µM | 87.4 µM
Cc1ccccc1NC(=O)/C=N/O | – | > 100 µM | > 100 µM | > 100 µM | 39.6 µM | > 100 µM | – | – | – | – | – | – | – | – | – | – | – | – | – | –
CC(C)(C)OC(=O)NCCCCn1c2c(c3ccccc3c1=O)C(=O)c1ccccc1-2 | > 100 µM | – | 42.4 µM | 69.3 µM | > 100 µM | > 100 µM | 52.8 µM | 53.1 µM | 80.6 µM | 45.7 µM | – | 3.59 µM | 23.1 µM | 20.9 µM | 17.1 µM | 24.5 µM | 5.21 µM | 15.7 µM | 61.5 µM | 9.52 µM
COC(=O)c1cccc2c3ccccc3c3ccccc3c12 | 72.8 µM | > 100 µM | 87.7 µM | > 100 µM | > 100 µM | > 100 µM | – | – | – | – | – | – | – | – | – | – | – | – | – | –
[N-]=[N+]=NCCCn1c2c(c3ccc([N+](=O)[O-])cc3c1=O)C(=O)c1cc3c(cc1-2)OCO3 | 0.0679 µM | – | < 0.01 µM | 0.95 µM | 3.62 µM | 1.18 µM | – | 12.3 µM | < 0.01 µM | < 0.041 µM | – | < 0.01 µM | < 0.0106 µM | – | 0.828 µM | < 0.01 µM | < 0.01 µM | < 0.0114 µM | 0.379 µM | < 0.01 µM
CCOC(=O)C(=O)Nc1cc(Cl)c(Cl)cc1Cl | – | > 100 µM | – | > 100 µM | > 100 µM | > 100 µM | – | – | – | – | – | – | – | – | – | – | – | – | – | –
COC(=O)CCC(=O)N1C/C(=C\c2ccccc2)C(=O)/C(=C/c2ccccc2)C1 | > 100 µM | 3.06 µM | 12.2 µM | 3.44 µM | 14.3 µM | 1.42 µM | – | – | – | – | – | – | – | – | – | – | – | – | – | –
Cc1cccc(C)c1NC(=O)CCc1nnc2s/c(=C\c3ccc(N(C)C)cc3)c(=O)n12 | > 100 µM | > 100 µM | > 100 µM | > 100 µM | – | > 100 µM | – | – | – | – | – | – | – | – | – | – | – | – | – | –
